Laboratory results published in patent US20230085307A1, “PYRIDAZINONE COMPOUND AND HERBICIDE” (NISSAN CHEMICAL CORPORATION, priority 2019, published 2023).

Columns and labels:
Italian ryegrass [1] = test: Test Example 5: herbicidal effect by foliage application, plastic box (Table 20, symbol K); assay type: in vivo, Italian ryegrass (Lolium multiflorum); conditions: foliage application, 320 g/ha, three weeks after application
In short: (§1)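 Sow seeds spot-wise in sterilized diluvial soil; cover with ~1.5 cm soil. Grow 14 days in greenhouse, 25° C. to 30° C. Spray foliage with emulsion diluted to predetermined amount. Rate effect after 3 weeks.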

barnyard grass [2] = test: Test Example 4: herbicidal effect by soil treatment (Table 19, symbol H); assay type: in vivo, barnyard grass (Echinochloa crus-galli); conditions: amount of applied herbicide 320 g/ha
In short: (§2)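 Applied as a water-diluted emulsion, the compound was sprayed onto soil covering newly sown seeds. Evaluation came three weeks after application, in a greenhouse held at 25° C. to 30° C.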

windgrass [3] = test: Test Example 4: herbicidal effect by soil treatment (Table 19, symbol L); assay type: in vivo, windgrass (Apera spica-venti); conditions: amount of applied herbicide 320 g/ha
In short: as §2

redroot pigweed [4] = test: Test Example 5: herbicidal effect by foliage application, plastic box (Table 20, symbol N); assay type: in vivo, redroot pigweed (Amaranthus retroflexus); conditions: foliage application, 320 g/ha, three weeks after application
In short: as §1

southern crabgrass [5] = test: Test Example 4: herbicidal effect by soil treatment (Table 19, symbol F); assay type: in vivo, southern crabgrass (Digitaria ciliaris); conditions: amount of applied herbicide 320 g/ha
In short: as §2

wild oat [6] = test: Test Example 4: herbicidal effect by soil treatment (Table 19, symbol I); assay type: in vivo, wild oat (Avena fatua); conditions: amount of applied herbicide 320 g/ha
In short: as §2

barnyard grass [7] = test: Test Example 3: herbicidal effect by foliage application, Wagner pot (Table 18, symbol H); assay type: in vivo, barnyard grass (Echinochloa crus-galli); conditions: 320 g/ha
In short: (§3)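 Plants were sown in alluvial soil held under 0.1–0.5 cm standing water and grown 14 days in a greenhouse at 25–30 °C. An emulsifiable formulation, water-diluted to the set dose, was then sprayed onto the foliage, and effects were scored three weeks later using previously defined criteria.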

lambsquarters [8] = test: Test Example 4: herbicidal effect by soil treatment (Table 19, symbol O); assay type: in vivo, lambsquarters (Chenopodium album); conditions: amount of applied herbicide 320 g/ha
In short: as §2

southern crabgrass [9] = test: Test Example 5: herbicidal effect by foliage application, plastic box (Table 20, symbol F); assay type: in vivo, southern crabgrass (Digitaria ciliaris); conditions: foliage application, 320 g/ha, three weeks after application
In short: as §1

Italian ryegrass [10] = test: Test Example 4: herbicidal effect by soil treatment (Table 19, symbol K); assay type: in vivo, Italian ryegrass (Lolium multiflorum); conditions: amount of applied herbicide 320 g/ha
In short: as §2

rice flat sedge = test: Test Example 3: herbicidal effect by foliage application, Wagner pot (Table 18, symbol E); assay type: in vivo, rice flat sedge (Cyperus iria); conditions: 320 g/ha
In short: as §3

chickweed [11] = test: Test Example 4: herbicidal effect by soil treatment (Table 19, symbol P); assay type: in vivo, common chickweed (Stellaria media); conditions: amount of applied herbicide 320 g/ha
In short: as §2

blackgrass [12] = test: Test Example 4: herbicidal effect by soil treatment (Table 19, symbol J); assay type: in vivo, blackgrass (Alopecurus myosuroides); conditions: amount of applied herbicide 320 g/ha
In short: as §2

redroot pigweed [13] = test: Test Example 4: herbicidal effect by soil treatment (Table 19, symbol N); assay type: in vivo, redroot pigweed (Amaranthus retroflexus); conditions: amount of applied herbicide 320 g/ha
In short: as §2

velvetleaf [14] = test: Test Example 4: herbicidal effect by soil treatment (Table 19, symbol M); assay type: in vivo, velvetleaf (Abutilon theophrasti); conditions: amount of applied herbicide 320 g/ha
In short: as §2

green foxtail [15] = test: Test Example 5: herbicidal effect by foliage application, plastic box (Table 20, symbol G); assay type: in vivo, green foxtail (Setaria viridis); conditions: foliage application, 320 g/ha, three weeks after application
In short: as §1

persian speedwell [16] = test: Test Example 5: herbicidal effect by foliage application, plastic box (Table 20, symbol R); assay type: in vivo, Persian speedwell (Veronica persica); conditions: foliage application, 320 g/ha, three weeks after application
In short: as §1

chickweed [17] = test: Test Example 5: herbicidal effect by foliage application, plastic box (Table 20, symbol P); assay type: in vivo, common chickweed (Stellaria media); conditions: foliage application, 320 g/ha, three weeks after application
In short: as §1

wild oat [18] = test: Test Example 5: herbicidal effect by foliage application, plastic box (Table 20, symbol I); assay type: in vivo, wild oat (Avena fatua); conditions: foliage application, 320 g/ha, three weeks after application
In short: as §1

Chinese sprangletop = test: Test Example 3: herbicidal effect by foliage application, Wagner pot (Table 18, symbol D); assay type: in vivo, chinese sprangletop (Leptochloa chinensis); conditions: 320 g/ha
In short: as §3

green foxtail [19] = test: Test Example 4: herbicidal effect by soil treatment (Table 19, symbol G); assay type: in vivo, green foxtail (Setaria viridis); conditions: amount of applied herbicide 320 g/ha
In short: as §2

lambsquarters [20] = test: Test Example 5: herbicidal effect by foliage application, plastic box (Table 20, symbol O); assay type: in vivo, lambsquarters (Chenopodium album); conditions: foliage application, 320 g/ha, three weeks after application
In short: as §1

barnyard grass [21] = test: Test Example 5: herbicidal effect by foliage application, plastic box (Table 20, symbol H); assay type: in vivo, barnyard grass (Echinochloa crus-galli); conditions: foliage application, 320 g/ha, three weeks after application
In short: as §1

false cleavers [22] = test: Test Example 5: herbicidal effect by foliage application, plastic box (Table 20, symbol Q); assay type: in vivo, false cleavers (Galium spurium); conditions: foliage application, 320 g/ha, three weeks after application
In short: as §1

persian speedwell [23] = test: Test Example 4: herbicidal effect by soil treatment (Table 19, symbol R); assay type: in vivo, Persian speedwell (Veronica persica); conditions: amount of applied herbicide 320 g/ha
In short: as §2

false cleavers [24] = test: Test Example 4: herbicidal effect by soil treatment (Table 19, symbol Q); assay type: in vivo, false cleavers (Galium spurium); conditions: amount of applied herbicide 320 g/ha
In short: as §2

windgrass [25] = test: Test Example 5: herbicidal effect by foliage application, plastic box (Table 20, symbol L); assay type: in vivo, windgrass (Apera spica-venti); conditions: foliage application, 320 g/ha, three weeks after application
In short: as §1

velvetleaf [26] = test: Test Example 5: herbicidal effect by foliage application, plastic box (Table 20, symbol M); assay type: in vivo, velvetleaf (Abutilon theophrasti); conditions: foliage application, 320 g/ha, three weeks after application
In short: as §1

blackgrass [27] = test: Test Example 5: herbicidal effect by foliage application, plastic box (Table 20, symbol J); assay type: in vivo, blackgrass (Alopecurus myosuroides); conditions: foliage application, 320 g/ha, three weeks after application
In short: as §1

SMILES | K: Italian ryegrass, herbicidal effect grade (Italian ryegrass [1]) | H: barnyard grass, herbicidal effect grade (barnyard grass [2]) | L: windgrass, herbicidal effect grade (windgrass [3]) | N: redroot pigweed, herbicidal effect grade (redroot pigweed [4]) | F: southern crabgrass, herbicidal effect grade (southern crabgrass [5]) | I: wild oat, herbicidal effect grade (wild oat [6]) | herbicidal effect on barnyard grass (H) (barnyard grass [7]) | O: lambsquarters, herbicidal effect grade (lambsquarters [8]) | F: southern crabgrass, herbicidal effect grade (southern crabgrass [9]) | K: Italian ryegrass, herbicidal effect grade (Italian ryegrass [10]) | herbicidal effect on rice flat sedge (E) (rice flat sedge) | P: chickweed, herbicidal effect grade (chickweed [11]) | J: blackgrass, herbicidal effect grade (blackgrass [12]) | N: redroot pigweed, herbicidal effect grade (redroot pigweed [13]) | M: velvetleaf, herbicidal effect grade (velvetleaf [14]) | G: green foxtail, herbicidal effect grade (green foxtail [15]) | R: persian speedwell, herbicidal effect grade (persian speedwell [16]) | P: chickweed, herbicidal effect grade (chickweed [17]) | I: wild oat, herbicidal effect grade (wild oat [18]) | herbicidal effect on Chinese sprangletop (D) (Chinese sprangletop) | other results
CCCC(=O)Oc1c(C)nn(C)c(=O)c1-c1c(-c2ccc(OC(C)C)cc2)sc2cc(Cl)ccc12 [3-042] | 0 (Herbicidal rate of 5% or less (almost no effect)) | 0 (Herbicidal rate of 5% or less (almost no effect)) | 0 (Herbicidal rate of 5% or less (almost no effect)) | 3 (Herbicidal rate of 40% or more and less than 70%) | 0 (Herbicidal rate of 5% or less (almost no effect)) | 0 (Herbicidal rate of 5% or less (almost no effect)) | 4 (Herbicidal rate of 70% or more and less than 90%) | 0 (Herbicidal rate of 5% or less (almost no effect)) | 0 (Herbicidal rate of 5% or less (almost no effect)) | 0 (Herbicidal rate of 5% or less (almost no effect)) | 3 (Herbicidal rate of 40% or more and less than 70%) | 0 (Herbicidal rate of 5% or less (almost no effect)) | 0 (Herbicidal rate of 5% or less (almost no effect)) | 3 (Herbicidal rate of 40% or more and less than 70%) | 0 (Herbicidal rate of 5% or less (almost no effect)) | 0 (Herbicidal rate of 5% or less (almost no effect)) | 0 (Herbicidal rate of 5% or less (almost no effect)) | 0 (Herbicidal rate of 5% or less (almost no effect)) | 0 (Herbicidal rate of 5% or less (almost no effect)) | 0 (Herbicidal rate of 5% or less (almost no effect)) | G: green foxtail, herbicidal effect grade (green foxtail [19]): 0 (Herbicidal rate of 5% or less (almost no effect)); O: lambsquarters, herbicidal effect grade (lambsquarters [20]): 3 (Herbicidal rate of 40% or more and less than 70%); H: barnyard grass, herbicidal effect grade (barnyard grass [21]): 0 (Herbicidal rate of 5% or less (almost no effect)); Q: false cleavers, herbicidal effect grade (false cleavers [22]): 0 (Herbicidal rate of 5% or less (almost no effect)); R: persian speedwell, herbicidal effect grade (persian speedwell [23]): 0 (Herbicidal rate of 5% or less (almost no effect)); Q: false cleavers, herbicidal effect grade (false cleavers [24]): 0 (Herbicidal rate of 5% or less (almost no effect)); L: windgrass, herbicidal effect grade (windgrass [25]): 0 (Herbicidal rate of 5% or less (almost no effect)); M: velvetleaf, herbicidal effect grade (velvetleaf [26]): 3 (Herbicidal rate of 40% or more and less than 70%); J: blackgrass, herbicidal effect grade (blackgrass [27]): 0 (Herbicidal rate of 5% or less (almost no effect))
COc1ccc(-c2sc3cc(C)ccc3c2-c2c(O)c(C)nn(C)c2=O)cc1 [3-051] | 1 (Herbicidal rate of 5% or more and less than 20%) | 0 (Herbicidal rate of 5% or less (almost no effect)) | 0 (Herbicidal rate of 5% or less (almost no effect)) | 0 (Herbicidal rate of 5% or less (almost no effect)) | 0 (Herbicidal rate of 5% or less (almost no effect)) | 0 (Herbicidal rate of 5% or less (almost no effect)) | 1 (Herbicidal rate of 5% or more and less than 20%) | 0 (Herbicidal rate of 5% or less (almost no effect)) | 0 (Herbicidal rate of 5% or less (almost no effect)) | 0 (Herbicidal rate of 5% or less (almost no effect)) | 3 (Herbicidal rate of 40% or more and less than 70%) | 0 (Herbicidal rate of 5% or less (almost no effect)) | 0 (Herbicidal rate of 5% or less (almost no effect)) | 0 (Herbicidal rate of 5% or less (almost no effect)) | 0 (Herbicidal rate of 5% or less (almost no effect)) | 0 (Herbicidal rate of 5% or less (almost no effect)) | 5 (Herbicidal rate of 90% or more (almost completely withered)) | 4 (Herbicidal rate of 70% or more and less than 90%) | 0 (Herbicidal rate of 5% or less (almost no effect)) | 0 (Herbicidal rate of 5% or less (almost no effect)) | G: green foxtail, herbicidal effect grade (green foxtail [19]): 0 (Herbicidal rate of 5% or less (almost no effect)); O: lambsquarters, herbicidal effect grade (lambsquarters [20]): 0 (Herbicidal rate of 5% or less (almost no effect)); H: barnyard grass, herbicidal effect grade (barnyard grass [21]): 0 (Herbicidal rate of 5% or less (almost no effect)); Q: false cleavers, herbicidal effect grade (false cleavers [22]): 0 (Herbicidal rate of 5% or less (almost no effect)); R: persian speedwell, herbicidal effect grade (persian speedwell [23]): 4 (Herbicidal rate of 70% or more and less than 90%); Q: false cleavers, herbicidal effect grade (false cleavers [24]): 0 (Herbicidal rate of 5% or less (almost no effect)); L: windgrass, herbicidal effect grade (windgrass [25]): 0 (Herbicidal rate of 5% or less (almost no effect)); M: velvetleaf, herbicidal effect grade (velvetleaf [26]): 0 (Herbicidal rate of 5% or less (almost no effect)); J: blackgrass, herbicidal effect grade (blackgrass [27]): 0 (Herbicidal rate of 5% or less (almost no effect))
